For this data set, the system named is interleukin-18 (IL-18). Description: Skin sensitization potential (IL-18 production in HEK). The class given is cell-based, human. The settings on record: fold change of IL-18 vs vehicle control, HEK lysates, 16 hours. An excerpt: It is possible for a material to not be cytotoxic, and yet be unsafe due to provoking an allergic reaction upon skin contact. Typically, initial exposure to an allergen sensitizes the immune system, and following exposures cause an allergic response. Recent progress in understanding the mechanisms of skin sensitization identified interleukin-18 (IL-18) production in normal human epidermal keratinocytes (HEK) as a useful biomarker for skin contact sensitization (Corsini, et al., “Use of IL-18 Production In a Human Keratinocyte Cell Line to Discriminate Contact Sensitizers from Irritants and Low Molecular Weight Respiratory Allergens.” Toxicol In Vitro. 2009 August; 23(5):789-96; Teunis, et al., “Transfer of a Two-tiered Keratinocyte Assay: IL-18 Production by NCTC2544 to Determine the Skin Sensitizing Capacity and Epidermal Equivalent Assay to Determine Sensitizer Potency.” Toxicol In Vitro. 2013 April; 27(3):1135-50). […] Thus, IL-18 production in HEK was evaluated to determine sensitization potential.
Normal human adult epidermal keratinocytes (HEK) were cultured as described above for the cytoxicity evaluation. […] The cell lysates were collected, and IL-18 was quantified using Human IL-18 ELISA Kit (Catalog #7620, produced by MBL International Co., Woburn, Mass., USA). […] Fold changes of IL-18 levels between test articles and respective vehicle controls were calculated and compared to pPD. […]

Structures are written as SMILES.

In the case of `Nc1ccc(N)cc1` [benchmark sensitizer, para-phenylenediamine], the “IL18 Maximum fold” value is 7.8 fold).
